In patent US20250339567A1, “COMPOUNDS WITH IMPROVED PHARMACOKINETICS FOR IMAGING AND THERAPY OF CANCER” (priority 2019, published 2025):
Where two headings read alike, the source gives them in different places. Starred links: 1 amine or outer side, 2 acyl side, 3 side chain; linkers in the order of their positions; H or OH if unused. Non-standard residues stand in square brackets, D forms with d. Residues, ends and D or L forms follow the SMILES beside them. *: point of attachment. X4 = O=C(O)CN1CCN(CC(=O)O)CCN(CC(=O)NCc2ccc(NC(=O)COCC(=O)*)cc2)CCN(CC(=O)O)CC1; DOTAGA = O=C(O)CN1CCN(CC(=O)O)CCN(C(CCC(=O)*)C(=O)O)CCN(CC(=O)O)CC1; Benzoyl(4-SiFtBu2) = CC(C)(C)[Si](F)(c1ccc(C(=O)*)cc1)C(C)(C)C; d(γGlu) = O=C(O)[C@@H](CCC(=O)[*:2])N[*:1]; Sta = CC(C)C[C@H](N)[C@@H](O)CC(=O)O; Bta = N[C@@H](Cc1csc2ccccc12)C(=O)O; X1 = O=C(CN1CCC(N[*:1])CC1)[*:2]; NHCH(iBu)2 = CC(C)CC(CC(C)C)N*; dOrn = NCCC[C@@H](N)C(=O)O; hSer = N[C@@H](CCO)C(=O)O; X2 = NCCNCC(CNCCN)C(=O)*; dDap = NC[C@@H](N)C(=O)O; CO = O=C([*:1])[*:2]

Key:
[1] = n-Octanol-PBS distribution coefficient, log D7.4; assay type: physicochemical; conditions: for log D7.4 (n = 6), ^177Lu-labeled: Table 6, 177Lu-labeled Bombesin-SiFA compounds
Protocol: Approximately 1 MBq of the labeled tracer was dissolved in 1 mL of a 1:1 mixture (v/v) of phosphate buffered saline (PBS, pH=7.4) and n-octanol in an Eppendorf tube. After vigorous mixing of the suspension for 3 min at room temperature, the vial was centrifuged at 9000 rpm for 5 min (Biofuge 15, Heraus Sepatech, Osterode, Germany) and 200 μL aliquots of both layers were measured in a γ-counter. The experiment was repeated at least four times.

[2] = target: T1, GRPR (Homo sapiens, UniProt P30550); assay: Determination of GRPR affinity (IC50), competition with [D-3-[125I]I-Tyr6]MJ9 on PC-3 cells; assay type: binding; conditions: for IC50 [nM], ^natLu-labeled (n = 3): Table 6, natLu-labeled
T1 construct: endogenous in cells; host or cells: PC-3 cells
Protocol: The reference ligand for IC50 studies ([D-3-[^125I]I-Tyr^6]MJ9) is prepared according to a previously published procedure. Briefly, 0.2 mg of [D-Tyr^6]MJ9 are dissolved in 20 μL Tracepur water and 280 μL TRIS buffer (25 mm TRIS HCl, 0.4 M NaCl, pH=7.9). After addition of the solution to a vial containing 150 μg Iodo-Gen® (1,3,4,6-Tetrachloro-3α,6α-diphenylglycouril, surface-bound), 5.0 μL (16 MBq) [^125I]Nal(74 TBq/mmol, 3.1 GBq/mL, 40 mM NaOH, Hartmann Analytic, Braunschweig, Germany) are added.
The GRPR-positive PC-3 cells are cultured in Dublecco modified Eagle medium/Nutrition Mixture F-12 with Glutamax-I (1:1) (Invitrigon), supplemented with 10% fetal calf serum and maintained at 37° C. in a humidified 5% CO2 atmosphere.
After removal of the culture medium, the cells are washed once with 500 μL of HBSS (Hank's balanced salt solution, Biochrom, Berlin, Germany, with addition of 1% bovine serum albumin (BSA)) and left in 200 μL HBSS (1% BSA) for 9 min at room temperature for equilibration. Next, 25 μL per well of solutions, containing either HBSS (1% BSA) as control or the respective ligand in increasing concentration (10^−10 M-10^−4 M in HBSS), are added with subsequent addition of 25 μL of [D-3-[^125I]I-Tyr^6]MJ9 (2.0 nM) in HBSS (1% BSA).
All experiments are performed in triplicate for each concentration. After 2 h incubation at room temperature, the experiment is terminated by removal of the medium and consecutive rinsing with 300 μL of HBSS. The media of both steps are combined in one fraction and represent the amount of free radiolabeled reference. Afterwards, the cells are lysed with 300 μL of 1 M NaOH for at least 15 min and united with the 300 μL NaOH of the following washing step. Quantification of bound and free radiolabeled reference is accomplished in a γ-counter.
IC50 determination for each ligand was repeated twice.

[3] = Plasma studies: metabolic stability in vitro in human plasma (radio RP-HPLC); assay type: in vitro ADME; conditions: Table 1C; 177Lu-labeled, 37° C., 72 ± 2 h; in % (unit assumed)
Protocol: Metabolic stability in vitro was determined applying a procedure published by Linder et al. that was slightly modified. Immediately after labeling, human (200 μL) or murine (100 μL) plasma was added and the mixture was incubated at 37° C. for 72±2 h (or 6±0.5 h). Proteins were precipitated by treatment with ice-cold EtOH (150 μL [human], 100 μL [murine]) and ice-cold MeCN (450 μL [human], 300 μL [murine]), followed by centrifugation for 20 min at 13000 rpm. The supernatants were decanted and further analyzed using radio RP-HPLC. […]

[4] = [D-3-[125I]I-Tyr6]MJ9 (c = 0.2 nM), 2 h, r.t.
[5] = IC50 [nM] ± SD (n = 3), Table 5, non-labeled N4 ligands, [D-3-[125I]I-Tyr6]MJ9 (c = 0.2 nM), 2 h, r.t.
[6] = read-out: IC50 [nM] ± SD (n = 3), ^177Lu-labeled, Table 1C, GRPR affinity

T1 sequence (P30550 whole entry): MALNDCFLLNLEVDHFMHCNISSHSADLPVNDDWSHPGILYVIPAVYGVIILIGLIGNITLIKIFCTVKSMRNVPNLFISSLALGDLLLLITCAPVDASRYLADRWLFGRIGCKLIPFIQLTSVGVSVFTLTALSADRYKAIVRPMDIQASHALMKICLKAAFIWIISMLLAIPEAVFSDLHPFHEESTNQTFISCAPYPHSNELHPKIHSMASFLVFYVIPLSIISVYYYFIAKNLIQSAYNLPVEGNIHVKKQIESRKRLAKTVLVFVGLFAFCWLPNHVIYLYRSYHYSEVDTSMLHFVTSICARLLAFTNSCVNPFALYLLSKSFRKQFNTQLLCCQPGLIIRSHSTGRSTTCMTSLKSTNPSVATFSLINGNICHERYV

SMILES	IC50 [nM], ^natLu-labeled (n = 3) [2, 4]	log D7.4 (n = 6), ^177Lu-labeled [1]	Amount of intact tracer after incubation in human plasma for 72 ± 2 h (n = 2) [3]	IC50 [2, 6] [nM]	further results
CC(C)C[C@H](NC(=O)C[C@H](O)[C@H](CC(C)C)NC(=O)[C@H](Cc1c[nH]cn1)NC(=O)CNC(=O)[C@@H](NC(=O)[C@H](C)NC(=O)[C@](C)(Cc1c[nH]c2ccccc12)NC(=O)[C@H](CCC(N)=O)NC(=O)[C@@H](Cc1ccccc1)NC(=O)CN1CCC(NC(=O)CCC(C(=O)O)N2CCN(CC(=O)O)CCN(CC(=O)O)CCN(CC(=O)O)CC2)CC1)C(C)C)C(N)=O (single isomer, unassigned) [AMTG2]					log D7.4 ± SD (n = 8) ([1]; 177Lu-labeled ligand, n-octanol/PBS pH 7.4): −2.51 ± 0.11
CC(C)C[C@H](NC(=O)C[C@H](O)[C@H](CC(C)C)NC(=O)[C@H](Cc1c[nH]cn1)NC(=O)CNC(=O)[C@@H](NC(=O)[C@H](C)NC(=O)[C@H](Cc1c[nH]c2ccccc12)NC(=O)[C@H](CCC(N)=O)NC(=O)[C@@H](Cc1ccccc1)NC(=O)CN1CCC(NC(=O)[C@@H](CN)NC(=O)[C@@H](CCCN)NC(=O)[C@@H](CC(=O)O)NC(=O)[C@@H](CC(=O)O)NC(=O)[C@@H](CNC(=O)CCC(C(=O)O)N2CCN(CC(=O)O)CCN(CC(=O)O)CCN(CC(=O)O)CC2)NC(=O)[C@@H](CNC(=O)c2ccc([Si](F)(C(C)(C)C)C(C)(C)C)cc2)NC(=O)CC[C@@H](NC(=O)N[C@H](CCC(=O)O)C(=O)O)C(=O)O)CC1)C(C)C)C(N)=O (stereo partly drawn) [GT50] ({dE-CO-d(γGlu)}-[dDap](Benzoyl(4-SiFtBu2))[dDap](DOTAGA)[dD][dD][dOrn][dDap][X1][dF]QWAVGH[Sta]L-NH2)	comparable range	−1.96 ± 0.15			
CC(C)C[C@H](NC(=O)C[C@H](O)[C@H](CC(C)C)NC(=O)[C@H](Cc1c[nH]cn1)NC(=O)CNC(=O)[C@@H](NC(=O)[C@H](C)NC(=O)[C@H](Cc1c[nH]c2ccccc12)NC(=O)[C@H](CCC(N)=O)NC(=O)[C@@H](Cc1ccccc1)NC(=O)CN1CCC(NC(=O)[C@@H](CN)NC(=O)[C@@H](CC(=O)O)NC(=O)[C@@H](CCCN)NC(=O)[C@@H](CNC(=O)CCC(C(=O)O)N2CCN(CC(=O)O)CCN(CC(=O)O)CCN(CC(=O)O)CC2)NC(=O)[C@@H](CNC(=O)c2ccc([Si](F)(C(C)(C)C)C(C)(C)C)cc2)NC(=O)CC[C@@H](NC(=O)N[C@H](CCC(=O)O)C(=O)O)C(=O)O)CC1)C(C)C)C(N)=O (stereo partly drawn) [GT51] ({dE-CO-d(γGlu)}-[dDap](Benzoyl(4-SiFtBu2))[dDap](DOTAGA)[dOrn][dD][dDap][X1][dF]QWAVGH[Sta]L-NH2)	slightly increased	−1.96 ± 0.15			
CC(C)C[C@H](NC(=O)C[C@H](O)[C@H](CC(C)C)NC(=O)[C@H](Cc1c[nH]cn1)NC(=O)CNC(=O)[C@@H](NC(=O)[C@H](C)NC(=O)[C@H](Cc1c[nH]c2ccccc12)NC(=O)[C@H](CCC(N)=O)NC(=O)[C@@H](Cc1ccccc1)NC(=O)CN1CCC(NC(=O)CN2CCC(NC(=O)CN3CCC(NC(=O)[C@@H](CC(=O)O)NC(=O)[C@@H](CNC(=O)CCC(C(=O)O)N4CCN(CC(=O)O)CCN(CC(=O)O)CCN(CC(=O)O)CC4)NC(=O)[C@@H](CNC(=O)c4ccc([Si](F)(C(C)(C)C)C(C)(C)C)cc4)NC(=O)CC[C@@H](NC(=O)N[C@H](CCC(=O)O)C(=O)O)C(=O)O)CC3)CC2)CC1)C(C)C)C(N)=O (stereo partly drawn) [GT52] ({dE-CO-d(γGlu)}-[dDap](Benzoyl(4-SiFtBu2))[dDap](DOTAGA)[dD][X1][X1][X1][dF]QWAVGH[Sta]L-NH2)	comparable range	−2.05 ± 0.08			
CC(C)C[C@H](NC(=O)C[C@H](O)[C@H](CC(C)C)NC(=O)[C@H](Cc1c[nH]cn1)NC(=O)CNC(=O)[C@@H](NC(=O)[C@H](C)NC(=O)[C@H](Cc1c[nH]c2ccccc12)NC(=O)[C@H](CCC(N)=O)NC(=O)[C@@H](Cc1ccccc1)NC(=O)CN1CCC(NC(=O)CN2CCC(NC(=O)[C@@H](CC(=O)O)NC(=O)[C@@H](CNC(=O)CCC(C(=O)O)N3CCN(CC(=O)O)CCN(CC(=O)O)CCN(CC(=O)O)CC3)NC(=O)[C@@H](CNC(=O)c3ccc([Si](F)(C(C)(C)C)C(C)(C)C)cc3)NC(=O)CC[C@@H](NC(=O)N[C@H](CCC(=O)O)C(=O)O)C(=O)O)CC2)CC1)C(C)C)C(N)=O (stereo partly drawn) [GT53] ({dE-CO-d(γGlu)}-[dDap](Benzoyl(4-SiFtBu2))[dDap](DOTAGA)[dD][X1][X1][dF]QWAVGH[Sta]L-NH2)	slightly increased	−1.81 ± 0.15			
CC(C)C[C@H](NC(=O)C[C@H](O)[C@H](CC(C)C)NC(=O)[C@H](Cc1c[nH]cn1)NC(=O)CNC(=O)[C@@H](NC(=O)[C@H](C)NC(=O)[C@H](Cc1c[nH]c2ccccc12)NC(=O)[C@H](CCC(N)=O)NC(=O)[C@@H](Cc1ccccc1)NC(=O)CN1CCC(NC(=O)[C@H](CC(=O)O)NC(=O)C(CNCCN)CNCCN)CC1)C(C)C)C(N)=O [Ligand N4-asp-MJ9]					IC50 [2, 5]: 3.73 ± 0.78 nM; log D7.4 (n = 6), ^99mTc-labeled ([1]; n-octanol/PBS pH 7.4): −1.86 ± 0.03
CC(C)C[C@H](NC(=O)C[C@H](O)[C@H](CC(C)C)NC(=O)[C@H](Cc1c[nH]cn1)NC(=O)CNC(=O)[C@@H](NC(=O)[C@H](C)NC(=O)[C@H](Cc1csc2ccccc12)NC(=O)[C@H](CCC(N)=O)NC(=O)[C@@H](Cc1ccccc1)NC(=O)CN1CCC(NC(=O)[C@H](CC(=O)O)NC(=O)C(CNCCN)CNCCN)CC1)C(C)C)C(N)=O [N4-asp-[Bta^8]MJ9] (X2-D[X1][dF]Q[Bta]AVGH[Sta]L-NH2)					IC50 [2, 5]: 3.36 ± 0.42 nM; log D7.4 (n = 6), ^99mTc-labeled ([1]; n-octanol/PBS pH 7.4): −1.33 ± 0.06
CC(C)CC(CC(C)C)NC(=O)[C@H](Cc1c[nH]cn1)NC(=O)CNC(=O)[C@@H](NC(=O)[C@H](C)NC(=O)[C@H](Cc1csc2ccccc12)NC(=O)[C@H](CCC(N)=O)NC(=O)[C@@H](Cc1ccccc1)NC(=O)COCC(=O)Nc1ccc(CNC(=O)CN2CCN(CC(=O)O)CCN(CC(=O)O)CCN(CC(=O)O)CC2)cc1)C(C)C [[Bta^8]NeoBOMB1] (X4-[dF]Q[Bta]AVGH-{NHCH(iBu)2}; N-terminus and C-terminus assumed)			36.2 ± 3.8	13 ± 3	
CC(C)CC(CC(C)C)NC(=O)[C@H](Cc1c[nH]cn1)NC(=O)CNC(=O)[C@@H](NC(=O)[C@H](C)NC(=O)[C@H](Cc1c[nH]c2ccccc12)NC(=O)[C@H](CCO)NC(=O)[C@@H](Cc1ccccc1)NC(=O)COCC(=O)Nc1ccc(CNC(=O)CN2CCN(CC(=O)O)CCN(CC(=O)O)CCN(CC(=O)O)CC2)cc1)C(C)C [[Hse^7]NeoBOMB1] (X4-[dF][hSer]WAVGH-{NHCH(iBu)2}; N-terminus and C-terminus assumed)			57.4 ± 2.1	8.3 ± 0.7	
CC(C)CC(CC(C)C)NC(=O)[C@H](Cc1c[nH]cn1)NC(=O)CNC(=O)[C@@H](NC(=O)[C@H](C)NC(=O)[C@](C)(Cc1c[nH]c2ccccc12)NC(=O)[C@H](CCC(N)=O)NC(=O)[C@@H](Cc1ccccc1)NC(=O)COCC(=O)Nc1ccc(CNC(=O)CN2CCN(CC(=O)O)CCN(CC(=O)O)CCN(CC(=O)O)CC2)cc1)C(C)C [[α-Me-Trp^8]NeoBOMB1]			70.7 ± 2.8	6.8 ± 1.2	
